Assay results taken from PubChem BioAssay (NCI).
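In this assay, cells in 96-well plates receive the compound at five concentrations for 48 hours. Endpoints are linearly interpolated between the surrounding concentrations. GI50 = concentration required for 50% inhibition of growth. TGI: total growth inhibition.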

Tests used:
Assay in all cases: growth of human tumour cells (NCI), 48 h
[1] = tested on: ACHN renal
[2] = tested on: CCRF-CEM leukemia
[3] = tested on: EKVX NSCLC
[4] = tested on: HOP-92 NSCLC
[5] = tested on: KM12 colon
[6] = tested on: NCI-H23 lung
[7] = tested on: NCI-H522 lung
[8] = tested on: SF-539 CNS
[9] = tested on: SK-MEL-28 melanoma
[10] = tested on: UO-31 renal

Structure (SMILES) | TGI [1] | TGI [2] | TGI [3] | TGI [4] | TGI [5] | TGI [6] | TGI [7] | TGI [8] | TGI [9] | TGI [10] | GI50 [1] | GI50 [2] | GI50 [3] | GI50 [4] | GI50 [5] | GI50 [6] | GI50 [7] | GI50 [8] | GI50 [9] | GI50 [10]
c1ccc(SC23C4C5C6C4C2C6C53)nc1 (centres undefined) | > 100 µM | > 100 µM | > 100 µM | > 100 µM | > 100 µM | > 100 µM | > 100 µM | > 100 µM | > 100 µM | > 100 µM | – | – | – | – | – | – | – | – | – | –
CC1(C)OC(=O)C(C#N)=C1C[n+]1ccccc1 | > 10 µM | > 10 µM | > 10 µM | > 10 µM | > 10 µM | > 10 µM | > 10 µM | > 10 µM | > 10 µM | > 10 µM | – | – | – | – | – | – | – | – | – | –
N#CC(C#N)=Cc1ccc(CP(=O)(O)O)cc1 | > 100 µM | > 100 µM | > 100 µM | > 100 µM | > 100 µM | > 100 µM | > 100 µM | > 100 µM | > 100 µM | > 100 µM | – | – | – | – | – | – | – | – | – | –
COc1cc(OC)c(OC)cc1/C=C/c1cnnc2ccccc12 | > 10 µM | > 10 µM | > 10 µM | > 10 µM | > 10 µM | > 10 µM | > 10 µM | > 10 µM | > 10 µM | > 10 µM | – | – | – | – | – | – | – | – | – | –
CCCCc1c2cnccc2c(CCCC)c2c1[nH]c1ccccc12 | 30.6 µM | 99 µM | 36 µM | 47.7 µM | 24.7 µM | 36.2 µM | 58.2 µM | 12.6 µM | 21.7 µM | 29.8 µM | – | – | – | – | – | – | – | – | – | –
Cc1ccc2c(c1)C(=O)c1c-2c(OCCCN(C)C)nc2ccccc12 | 2.11 µM | 9.13 µM | 13.5 µM | 11.6 µM | 2.72 µM | 4.48 µM | 3.72 µM | 2.99 µM | 3.41 µM | 8.26 µM | 0.731 µM | 1.62 µM | 2.42 µM | 2.18 µM | 1.22 µM | 1.66 µM | 1.35 µM | 1.53 µM | 1.76 µM | 1.13 µM
C[C@H]1CNC(=O)c2cnn3ccc(nc23)N[C@H](C)c2cc(F)ccc2O1 | 4.36 µM | > 67.2 µM | > 75.4 µM | 0.998 µM | > 100 µM | 53.1 µM | 24.4 µM | 3.79 µM | > 100 µM | 3.56 µM | 0.558 µM | 0.444 µM | 1.24 µM | 0.184 µM | – | 1.93 µM | 2.43 µM | 0.743 µM | 18.5 µM | 1.21 µM
CC([C@H]1CC=C2C3CCC4=C[C@@H](N(C)C)CC[C@]4(C)C3CC[C@@]21C)N(C)C (some centres undefined) | 14.7 µM | 7.79 µM | 18.3 µM | 10.3 µM | 11.9 µM | 14.8 µM | 25 µM | 2.84 µM | 3.38 µM | 5.54 µM | 4.07 µM | 2.11 µM | 1.99 µM | 3.66 µM | 2.77 µM | 3.15 µM | 7.12 µM | 1.4 µM | 1.74 µM | 1.95 µM
COc1ccc2c(c1OC)C(C(Cl)(Cl)Cl)N1CCc3cc4c(cc3C1=C2)OCO4 (centres undefined) | 65.1 µM | 62.2 µM | > 100 µM | 84.7 µM | 20.3 µM | > 100 µM | 35.1 µM | > 100 µM | 27.8 µM | > 100 µM | – | – | – | – | – | – | – | – | – | –
Cn1c(-c2ccccc2)c(/C=C/C2=[N+](C)c3ccccc3C2(C)C)c2ccccc21 | 11.7 µM | 54.7 µM | 10.4 µM | 4.64 µM | 1.94 µM | 5.17 µM | 3.78 µM | 14.2 µM | 11.8 µM | 7.3 µM | 3.05 µM | 1.18 µM | 0.397 µM | 0.616 µM | 0.429 µM | 0.784 µM | 0.863 µM | 2.59 µM | 1.19 µM | 2.23 µM
CC1CC(C)C2OC2(C)C[C@H](C)C(=O)NC(C)C(=O)N(C)[C@H](Cc2c(Br)[nH]c3ccccc23)C(=O)N[C@@H](c2ccc(O)cc2)CC(=O)O1 (some centres undefined) | 27.2 µM | > 65 µM | 75.8 µM | 0.638 µM | > 100 µM | > 40.4 µM | 0.856 µM | 0.383 µM | 12.2 µM | 27.3 µM | – | – | – | – | – | – | – | – | – | –
CCCCCC[C@@H](C)NC(=O)c1ccc(Nc2nc3ccccc3c3occc23)cc1 | 91.7 µM | 15.4 µM | 5.04 µM | 7.91 µM | > 100 µM | 6.59 µM | 4.54 µM | 5.29 µM | > 100 µM | 21 µM | 24.8 µM | 3.89 µM | 1.52 µM | 1.99 µM | 38 µM | 2.06 µM | 1.31 µM | 2.07 µM | 5.5 µM | 2.87 µM
C[n+]1c2ccccc2nc2ccccc21 | 5.5 µM | > 28.7 µM | 7.96 µM | 4.71 µM | 12.2 µM | 2.34 µM | 3.45 µM | 4.76 µM | 3.1 µM | 7.6 µM | 0.789 µM | 0.683 µM | 1.69 µM | 1.5 µM | 2.93 µM | 0.67 µM | 1.3 µM | 1.68 µM | 1.59 µM | 2.39 µM
Cc1ccc(S(=O)(=O)c2ccc(C)cc2[N+](=O)[O-])cc1 | > 100 µM | > 100 µM | > 100 µM | > 100 µM | > 100 µM | > 100 µM | > 100 µM | > 100 µM | > 100 µM | > 100 µM | – | – | – | – | – | – | – | – | – | –
